Measured values as given in PubChem BioAssay AID1963858 (Molecular Pharmacology Branch, DTP, NCI, 2024).

System: HOP-62 multicell spheroids with HUVEC/MSC, viability
Assay: Anticancer human tumor HOP-62 cell line growth inhibition [KRAS2];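 further: viability read after a week of compound exposure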;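 on viability, T/C: 100% = DMSO vehicle-treated spheroids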
Settings: for IC50: curve of first compound; for viability, T/C: stronger effect = lower value
Excerpt: Multicellular complex tumor spheroid response to RAS pathway inhibitors in combination with a targeted agents in patient-derived cell lines with oncogenic KRAS variants from multiple cancer types
A high-throughput screen of multi-cell type tumor spheroids was designed to identify active combinations of targeted small molecules and KRAS pathway inhibitors. Complex spheroids include a stromal component modeled by human endothelial cells (HUVEC) and fibroblasts modeled by human mesenchymal stem cells (MSCs). The concentration ranges selected for each drug and investigational agent were based upon clinically achievable concentrations if the clinical Cmax of the agent was known.
Compounds. The drugs and investigational agents: BI-3406 (NSC825286), BAY-293 (NSC824723), batoprotafib (TNO155; NSC825523), sotorasib (AMG 510; NSC818433), MRTX1257 (NSC819558), elimusertib (BAY 1895344; NSC800525), molibresib (GSK525762; NSC774829), temuterkib (LY3214996; NSC803410), venetoclax (NSC766270), alisertib (NSC759677), olaparib (NSC753686), talazoparib (NSC767125), erdafitinib (NSC781556), ipatasertib (NSC767898), cabozantinib (NSC761068), nintedanib (NSC756659), abemaciclib (NSC768073), docetaxel (NSC628503), trametinib (NSC758246), and sapanisertib (NSC764658) were obtained from the National Cancer Institute (NCI) Developmental Therapeutics Program Chemical Repository. The FDA-approved anticancer drug set is available from the Developmental Therapeutics Program. […] The stock solutions were prepared in dimethyl sulfoxide (DMSO, Sigma-Aldrich, St. Louis, MO, cat. D2650) at 800-fold the tested concentration and stored at -70 degrees C prior to their use. All drugs and investigational agents were tested over a range starting from a high concentration at or near the clinical Cmax and decreasing in half-log increments. If the clinical Cmax for an agent had not been determined, the highest concentration tested was 10 microM.
Cell Culture. All cells were maintained in an incubator at 37 degrees C and 5% CO2 with 95% humidity. The PDC lines were cultured according to standard operating procedures established by the NCI PDMR (https://pdmr.cancer.gov/sops/default.htm). Briefly, all PDCs were thawed and cultured in Matrigel-coated flasks prepared with a working solution of 1X Ham's F-12 nutrient mix, without supplementation (Invitrogen, Waltham, MA, cat. 11765054), 100 U/mL penicillin-streptomycin (Invitrogen, cat. 15140122), and 2.5% Matrigel (Corning Inc., Corning, NY, cat. 354248) for the first three passages. All PDCs were cultured in complete DMEM/F-12 media containing advanced DMEM/F-12 (Invitrogen, cat. 12634028), 4.9% defined fetal bovine serum, heat inactivated (HyClone Laboratories Inc., Logan, UT, cat. SH30070.03HI), 389 ng/mL hydrocortisone (Sigma-Aldrich, cat. H4001), 9.7 ng/mL human EGF recombinant protein (Invitrogen, cat. PHG0313), 23.4 microg/mL adenine (Sigma-Aldrich, cat. A2786), 97.3 U/mL penicillin-streptomycin (Invitrogen, cat. 15140122), 1.9 mM L-glutamine (Invitrogen, cat. 25030081), and 9.7 microM Y-27632 dihydrochloride (Tocris Bioscience, Bristol, United Kingdom, cat. 1254). The PDCs were cultured in complete DMEM/F12 media without 9.7 microM Y-27632 dihydrochloride for at least two passages prior to the screen. The established cell line HOP-62 was cultured in RPMI 1640 medium, HEPES (Invitrogen, cat. 22400105) with 10% defined fetal bovine serum (HyClone Laboratories Inc., cat. SH30070.03) and 2 mM L-glutamine (Invitrogen, cat. 25030081). The pooled donor HUVEC were cultured in endothelial cell growth medium 2 (PromoCell, Heidelberg, Germany, cat. C-22011) and the hMSC were cultured in mesenchymal stem cell growth medium 2 (PromoCell, cat. C-28009). For all experiments, HUVEC and hMSC were used at passages </=5, while the malignant cell lines were used at passages </=15. […]

[1] = second compound 0.1 µM, first compound 0.0316 µM
[2] = second compound 0.1 µM, first compound 0.1 µM
[3] = second compound 0.1 µM, first compound 0.316 µM
[4] = second compound 0.1 µM, first compound 1 µM
[5] = second compound 0.1 µM, first compound 3.16 µM
[6] = second compound 0.1 µM, first compound 10 µM
[7] = second compound 0.316 µM, first compound 0.0316 µM
[8] = second compound 0.316 µM, first compound 0.1 µM
[9] = second compound 0.316 µM, first compound 0.316 µM
[10] = second compound 0.316 µM, first compound 1 µM
[11] = second compound 0.316 µM, first compound 3.16 µM
[12] = second compound 0.316 µM, first compound 10 µM
[13] = second compound 1 µM, first compound 0.0316 µM
[14] = second compound 1 µM, first compound 0.1 µM
[15] = second compound 1 µM, first compound 0.316 µM
[16] = second compound 1 µM, first compound 1 µM
[17] = second compound 1 µM, first compound 3.16 µM
[18] = second compound 1 µM, first compound 10 µM
[19] = second compound 3.16 µM, first compound 0.0316 µM
[20] = second compound 3.16 µM, first compound 0.1 µM
[21] = second compound 3.16 µM, first compound 0.316 µM
[22] = second compound 3.16 µM, first compound 1 µM
[23] = second compound 3.16 µM, first compound 3.16 µM
[24] = second compound 3.16 µM, first compound 10 µM
[25] = second compound 10 µM, first compound 0.0316 µM
[26] = second compound 10 µM, first compound 0.1 µM
[27] = second compound 10 µM, first compound 0.316 µM
[28] = second compound 10 µM, first compound 1 µM
[29] = second compound 10 µM, first compound 3.16 µM
[30] = second compound 10 µM, first compound 10 µM
[31] = second compound 0.1 µM, first compound 0.00316 µM
[32] = second compound 0.1 µM, first compound 0.01 µM
[33] = second compound 0.316 µM, first compound 0.00316 µM
[34] = second compound 0.316 µM, first compound 0.01 µM
[35] = second compound 1 µM, first compound 0.00316 µM
[36] = second compound 1 µM, first compound 0.01 µM
[37] = second compound 3.16 µM, first compound 0.00316 µM
[38] = second compound 3.16 µM, first compound 0.01 µM
[39] = second compound 10 µM, first compound 0.00316 µM
[40] = second compound 10 µM, first compound 0.01 µM

| SMILES | IC50 (second compound 0.1 µM) [nM] | IC50 (second compound 0.316 µM) [nM] | IC50 (second compound 1 µM) [nM] | IC50 (second compound 3.16 µM) [nM] | IC50 (second compound 10 µM) [nM] | viability, T/C [1] [%] | viability, T/C [2] [%] | viability, T/C [3] [%] | viability, T/C [4] [%] | viability, T/C [7] [%] | viability, T/C [8] [%] | viability, T/C [9] [%] | viability, T/C [10] [%] | viability, T/C [13] [%] | viability, T/C [14] [%] | viability, T/C [15] [%] | viability, T/C [19] [%] | viability, T/C [20] [%] | viability, T/C [25] [%] | viability, T/C [26] [%] | other results |
| --- | --- | --- | --- | --- | --- | --- | --- | --- | --- | --- | --- | --- | --- | --- | --- | --- | --- | --- | --- | --- | --- |
| CC(C)NCC(C(=O)N1CCN(c2ncnc3c2C(C)CC3O)CC1)c1ccc(Cl)cc1 (stereo not given) + C=CC(=O)N1CCN(c2nc(=O)n(-c3c(C)ccnc3C(C)C)c3nc(-c4c(O)cccc4F)c(F)cc23)C(C)C1 | 69.2 | 70 | 88.9 | 110 | < 31.6 | 60.9 | 45.3 | 22.2 | 12.4 | 53.8 | 49.1 | 28.2 | 12.9 | 57.2 | 49.6 | 27.2 | 55.7 | 51 | 43.3 | 28.1 | viability, T/C [5]: 7.1%; viability, T/C [6]: 5.4%; viability, T/C [11]: 6.09%; viability, T/C [12]: 5.39%; viability, T/C [16]: 11.8%; viability, T/C [17]: 6.8%; viability, T/C [18]: 5.57%; viability, T/C [21]: 36.3%; viability, T/C [22]: 15.1%; viability, T/C [23]: 7.34%; viability, T/C [24]: 4.5%; viability, T/C [27]: 19.5%; viability, T/C [28]: 12.8%; viability, T/C [29]: 8.3%; viability, T/C [30]: 5.28% |
| CCN1CCN(Cc2ccc(Nc3ncc(F)c(-c4cc(F)c5nc(C)n(C(C)C)c5c4)n3)nc2)CC1 + C=CC(=O)N1CCN(c2nc(=O)n(-c3c(C)ccnc3C(C)C)c3nc(-c4c(O)cccc4F)c(F)cc23)C(C)C1 | 150 | 39.5 | 501 | 543 | < 3.16 | 49.4 | 50.5 | 51.3 | 40.5 | 50.6 | 48 | 49.8 | 44.3 | 51.7 | 60 | 57.1 | 57.4 | 53.5 | 42.1 | 39.6 | viability, T/C [31]: 58%; viability, T/C [32]: 53.3%; viability, T/C [33]: 72.5%; viability, T/C [34]: 69.4%; viability, T/C [35]: 64.9%; viability, T/C [36]: 59.2%; viability, T/C [16]: 39.3%; viability, T/C [37]: 70.4%; viability, T/C [38]: 63.6%; viability, T/C [21]: 63.4%; viability, T/C [22]: 36.9%; viability, T/C [39]: 51.9%; viability, T/C [40]: 41.6%; viability, T/C [27]: 38.2%; viability, T/C [28]: 22.7% |
| CCNC(=O)CC1N=C(c2ccc(Cl)cc2)c2cc(OC)ccc2-n2c(C)nnc21 (stereo not given) + C=CC(=O)N1CCN(c2nc(=O)n(-c3c(C)ccnc3C(C)C)c3nc(-c4c(O)cccc4F)c(F)cc23)C(C)C1 | 74.2 | 72.7 | 66.1 | 129 | < 31.6 | 67.2 | 42.7 | 33.2 | 22.6 | 71.2 | 41.1 | 30.1 | 24.9 | 60.6 | 45 | 32.5 | 71.4 | 53.6 | 39.2 | 36.9 | viability, T/C [5]: 19.3%; viability, T/C [6]: 19.4%; viability, T/C [11]: 21.9%; viability, T/C [12]: 20.4%; viability, T/C [16]: 24.6%; viability, T/C [17]: 23%; viability, T/C [18]: 19.8%; viability, T/C [21]: 36.8%; viability, T/C [22]: 23.3%; viability, T/C [23]: 23.1%; viability, T/C [24]: 19.2%; viability, T/C [27]: 25.3%; viability, T/C [28]: 22.2%; viability, T/C [29]: 17.1%; viability, T/C [30]: 17.4% |
| Cn1ncnc1[C@H]1c2n[nH]c(=O)c3cc(F)cc(c23)N[C@@H]1c1ccc(F)cc1 + C=CC(=O)N1CCN(c2nc(=O)n(-c3c(C)ccnc3C(C)C)c3nc(-c4c(O)cccc4F)c(F)cc23)C(C)C1 | 23.3 | 13.5 | > 100 | > 100 | < 0.316 | 46.8 | 43.5 |  |  | 41.5 | 41.5 |  |  | 61 | 59.4 |  | 52.9 | 49 | 38 | 33.9 | viability, T/C (second compound 0.1 µM, first compound 0.000316 µM): 64.7%; viability, T/C (second compound 0.1 µM, first compound 0.001 µM): 68.3%; viability, T/C [31]: 51.5%; viability, T/C [32]: 58.3%; viability, T/C (second compound 0.316 µM, first compound 0.000316 µM): 68.5%; viability, T/C (second compound 0.316 µM, first compound 0.001 µM): 69.2%; viability, T/C [33]: 53%; viability, T/C [34]: 56.1%; viability, T/C (second compound 1 µM, first compound 0.000316 µM): 61.9%; viability, T/C (second compound 1 µM, first compound 0.001 µM): 63.8%; viability, T/C [35]: 63%; viability, T/C [36]: 54.4%; viability, T/C (second compound 3.16 µM, first compound 0.000316 µM): 66.6%; viability, T/C (second compound 3.16 µM, first compound 0.001 µM): 64.3%; viability, T/C [37]: 57%; viability, T/C [38]: 66.9%; viability, T/C (second compound 10 µM, first compound 0.000316 µM): 40.1%; viability, T/C (second compound 10 µM, first compound 0.001 µM): 46.6%; viability, T/C [39]: 42.9%; viability, T/C [40]: 36.4% |
